# Values quoted from earlier work as cited in patent publication US20180371542A1, “OPIOID RECEPTOR BLOCKADE IN TREATING ALCOHOL USE DISORDERS” (MUSC Foundation for Research Development, priority 2017, published 2018).
# Tested on: DSM-IV alcohol dependent individuals
# Details: all subjects irrespective of genotype; initial report (Schacht et al., 2017)
smiles,measurement,value
O=C1CC[C@@]2(O)[C@H]3Cc4ccc(O)c5c4[C@@]2(CCN3CC2CC2)[C@H]1O5 [naltrexone],Main effect of naltrexone over placebo overall,significant main effect of naltrexone over placebo
